# From patent US20220071970A1, “QUINUCLIDINE-3-ONE DERIVATIVES AND THEIR USE IN CANCER TREATMENT” (Aprea Therapeutics AB, priority 2018, published 2022)
# pIC50: −log10 of the molar value.
# Test system: SaOS-2 His273 mtp53 human osteosarcoma cell line
# Assay: In vitro efficacy study using the SaOS-2 His273 protocol (CellTiter-Glo viability, 72 h)
# Format: cell-based
# Settings: SAOS-2, 72 h, read-out: SaOS-2 His273 IC50
# Description: SaOS-2 His273 mtp53 is a human osteosarcoma cell line which has been genetically engineered at OnkPat CCK to express His273 mutated p53.
# 3000 cells/well (50 μl) were seeded into masked (black or white with clear bottom) 96-well cell culture plates using Iscove's Modified Dulbecco's Medium supplemented with 10% heat inactivated (56° C. for 60 min) fetal calf serum. The plates were then incubated for 4 hours, allowing the cells to attach. The test compounds were dissolved in DMSO or water to a concentration of 0.01 M and then further diluted to desired concentrations using the cell medium. 50 μl of freshly diluted test compound from fresh stock was added to the wells. The plates were then incubated for 72 hours.
# For viability detection, CellTiter-Glo® Luminescent Cell Viability Assay (CTG) was used. CTG is a homogeneous “add-mix-measure” format method of determining the number of viable cells in culture based on quantitation of the ATP present, an indicator of metabolically active cells. The luminescence was measured using the PerkinElmer Victorx4 instrument.
# The average of the signal values for the untreated cells was calculated for each plate. The % of growth suppression was calculated as:
# 100−((Signal sample/Signal untreated cells)×100).
# The results of the SaOs-2 His273 analyses were expressed as IC50 values, i.e. concentration that suppresses growth of at least 50% of the cells. The IC50 values of various compounds according to the invention and of some comparative compounds are shown in Table 1, Table 2, Table 3 and Table 4.
row,SMILES,pIC50
1,"O=C1C2CCN(CC2)C1Cc1cnn[nH]1 (racemic) [Comparative example 5, 2-((1H-1,2,3-triazol-5-yl)methyl)quinuclidin-3-one, reference compound]",< 4.40
2,"CCN(CC1C(=O)C2CCN1CC2)C(=O)C(Cl)(Cl)Cl (racemic) [Example 1, 2,2,2-trichloro-N-ethyl-N-((3-oxoquinuclidin-2-yl)methyl)acetamide]",5.49
3,"O=C1C2CCN(CC2)C1CNC(=O)C(Cl)(Cl)Cl (racemic) [Example 2, 2,2,2-trichloro-N-((3-oxoquinuclidin-2-yl)methyl)acetamide]",5.16
4,"CCN(CC1C(=O)C2CCN1CC2)C(=O)C(F)(F)F (racemic) [Example 3, N-ethyl-2,2,2-trifluoro-N-((3-oxoquinuclidin-2-yl)methyl)acetamide]",5.38
5,"O=C(NCC1C(=O)C2CCN1CC2)C(F)F (racemic) [Example 5, 2,2-difluoro-N-((3-oxoquinuclidin-2-yl)methyl)acetamide]",4.89
6,"O=C1C2CCN(CC2)C1CNS(=O)(=O)c1cccnc1 (racemic) [Example 6, N-((3-oxoquinuclidin-2-yl)methyl)pyridine-3-sulfonamide]",5.14
7,"O=C1C2CCN(CC2)C1CNS(=O)(=O)c1ccc(F)cc1 (racemic) [Example 7, 4-fluoro-N-((3-oxoquinuclidin-2-yl)methyl)benzenesulfonamide]",5.14
8,"CCN(CC1C(=O)C2CCN1CC2)S(C)(=O)=O (racemic) [Example 8, N-ethyl-N-((3-oxoquinuclidin-2-yl)methyl)methane-sulfonamide]",5.22
9,"CS(=O)(=O)NCC1C(=O)C2CCN1CC2 (racemic) [Example 9, N-((3-oxoquinuclidin-2-yl)methyl)methanesulfon-amide]",5.10
10,"O=C1C2CCN(CC2)C1CNS(=O)(=O)c1ccccc1 (racemic) [Example 10, N-((3-oxoquinuclidin-2-yl)methyl)benzenesulfon-amide]",5.15
11,"CS(=O)(=O)N(CC(N)=O)CC1C(=O)C2CCN1CC2 (racemic) [Example 11, 2-(N-((3-oxoquinuclidin-2-yl)methyl)methylsulfon-amido)acetamide]",5.39
12,"CS(=O)(=O)N(CC(=O)O)CC1C(=O)C2CCN1CC2 (racemic) [Example 12, N-(methylsulfonyl)-N-((3-oxoquinuclidin-2-yl)-methyl)qlycine]",5.22
13,"O=C1C2CCN(CC2)C1CNS(=O)(=O)c1ccncc1 (racemic) [Example 13, N-((3-oxoquinuclidin-2-yl)methyl)pyridine-4-sulfon-amide]",5.20
14,"O=C1C2CCN(CC2)C1CNS(=O)(=O)c1ccccn1 (racemic) [Example 14, N-((3-oxoquinuclidin-2-yl)methyl)pyridine-2-sulfonamide]",5.22
15,"CCN(CC1C(=O)C2CCN1CC2)S(=O)(=O)C(F)(F)F (racemic) [Example 15, N-ethyl-1,1,1-trifluoro-N-((3-oxoquinuclidin-2-yl)-methyl)methanesulfonamide]",5.46
16,"O=C1C2CCN(CC2)C1CNS(=O)(=O)C(F)(F)F (racemic) [Example 16, 1,1,1-trifluoro-N-((3-oxoquinuclidin-2-yl)methyl)methanesulfonamide]",5.54

row,SMILES,pIC50
1,"CC(C)S(=O)(=O)NCC1C(=O)C2CCN1CC2 (racemic) [Example 18, N-((3-oxoquinuclidin-2-yl)methyl)propane-2-sulfonamide]",4.96
2,"O=C1C2CCN(CC2)C1CNS(=O)(=O)C1CC1 (racemic) [Example 19, N-((3-oxoquinuclidin-2-yl)methyl)cyclopropane-sulfonamide]",4.92
3,"CC1(S(=O)(=O)NCC2C(=O)C3CCN2CC3)CC1 (racemic) [Example 20, 1-methyl-N-((3-oxoquinuclidin-2-yl)methyl)cyclo-propane-1-sulfonamide]",5.13
4,"CS(=O)(=O)N(CC1C(=O)C2CCN1CC2)C1CC1 (racemic) [Example 21, N-cyclopropyl-N-((3-oxoquinuclidin-2-yl)methyl)-methanesulfonamide]",5.74
5,"CS(=O)(=O)N(CC1C(=O)C2CCN1CC2)c1ccccc1 (racemic) [Example 22, N-((3-oxoquinuclidin-2-yl)methyl)-N-phenyl-methanesulfonamide]",5.80
6,"Cc1cn(CC2C(=O)C3CCN2CC3)c(=O)n(C(=O)OC(C)(C)C)c1=O (racemic) [Example 25, tert-butyl 5-methyl-2,6-dioxo-3-((3-oxoquinuclidin-2-yl)methyl)-3,6-dihydropyrimidine-1(2H)-carboxylate]",5.28
7,"CNC(=O)c1ncn(CC2C(=O)C3CCN2CC3)n1 (racemic) [Example 27, N-methyl-1-((3-oxoquinuclidin-2-yl)methyl)-1H-1,2,4-triazole-3-carboxamide]",5.30
8,"O=C1C2CCN(CC2)C1Cn1cnc(Cl)n1 (racemic) [Example 28, 2-((3-chloro-1H-1,2,4-triazol-1-yl)methyl)quinuclidin-3-one]",5.51
9,"O=C1C2CCN(CC2)C1Cn1cncn1 (racemic) [Example 30, 2-((1H-1,2,4-triazol-1-yl)methyl)quinuclidin-3-one]",4.59
10,"N#Cc1ncn(CC2C(=O)C3CCN2CC3)n1 (racemic) [Example 31, 1-((3-oxoquinuclidin-2-yl)methyl)-1H-1,2,4-triazole-3-carbonitrile]",5.62
11,"NC(=O)c1ncn(CC2C(=O)C3CCN2CC3)n1 (racemic) [Example 32, 1-((3-oxoquinuclidin-2-yl)methyl)-1H-1,2,4-triazole-3-carboxamide]",5.00
12,"CC(=O)NCC1C(=O)C2CCN1CC2 (racemic) [compound 1, N-((3-oxoquinuclidin-2-yl)methyl)acetamide, reference compound]",< 4.40
13,"O=C(NCC1C(=O)C2CCN1CC2)c1cccnc1 (racemic) [compound 2, N-((3-oxoquinuclidin-2-yl)methyl)nicotinamide, reference compound]",< 4.40
14,"O=C1C2CCN(CC2)C1Cn1cccn1 (racemic) [compound 4, 2-((1H-pyrazol-1-yl)methyl)quinuclidin-3-one, reference compound]",< 4.40
15,"CN(C)C(=O)c1ncn(CC2C(=O)C3CCN2CC3)n1 (single isomer, unassigned) [Example 29, N,N-dimethyl-1-((3-oxoquinuclidin-2-yl)methyl)-1H-1,2,4-triazole-3-carboxamide]",5.06
16,"CS(=O)(=O)N(CC1C(=O)C2CCN1CC2)CC1C(=O)C2CCN1CC2 (centres unmarked) [Example 17, N,N-bis((3-oxoquinuclidin-2-yl)methyl)methanesulfonamide]",5.54
